Reference: patent publication US6630570B1, “Short-chain peptide-dye conjugates as contrast media for optical diagnosis” (priority 1999, dated 2003)
“Also recorded” adds a separate entry of the source. No end group written: not given here.

Legend:
RIN38-VIP1-cells = assay: Cell imaging by fluorescence microscopy, RIN38-VIP1 cells; assay type: cell-based, rat; conditions: 10 μM
Description: (§1) The binding and imaging of the compounds according to the invention were studied in vitro in human tumor cells, and the receptors for vaso-active intestinal peptide and/or somatostatin and/or neurotensin were expressed. To this end, 5×10^5 tumor cells were incubated in 1.5 ml of medium, which contained the test substance. Different concentrations of the substances (10 nM-10 μM) were used, and the incubation period varied (1 minute-24 hours). After the incubation, the cells were set, and microscopic preparations were produced. The evaluation was carried out on a Zeiss Axiovert 135-fluorescence microscope, which was equipped with a Cy7-(Exciter HQ 710/70 nm, emitter 810/90 nm, beam splitter 750 nm LP), Cy5-(exciter 575-625 nm, emitter 660-710 nm BP, beam splitter 645 nm) and Cy3-filter set (exciter 546/12 nm, emitter 590 nm LP, beam splitter 580 nm). From all preparations, white light and fluorescence images were recorded with a CCD-camera (Visitron RTE/CCD-576) and digitally stored.

HT29-tumor = assay: In-vivo fluorescence imaging in tumor-carrying nude mice, HT29 tumor; conditions: 0.1 μmol/kg intravenously, one hour after administration
Source text: The imaging properties of the compounds according to the invention were studied in vivo after injection into tumor-carrying nude mice. […] The fluorescence of the substances was excited by irradiation of animals with near-infrared light of wavelength 640 nm (indodicarbocyanines) or 740 nm (indotricarbocyanines), which was produced with an Nd:YAG laser. The fluorescence radiation was detected at a wavelength of >700 nm or >800 nm by an intensified CCD-camera, and the fluorescence images were stored digitally.

HT29 cells = assay: Cell imaging by fluorescence microscopy, HT29 cells; assay type: cell-based, human; conditions: 10 μM, 30 minutes of incubation, Cy7-filter set
Description: as §1

For “(ξ-Amino-indotricarbocyanine)-Lys^25-VIP (14-25)-conjugate (RKQMAVKKYLNK(indotricarbocyanine)) [conjugate 24]”, the “fluorescence image of the cells (pattern, correlation with white light image)” value (RIN38-VIP1-cells; Cy7-filter set) was “homogeneous, intracellular near-nucleus fluorescence”, the “increase in fluorescence intensity in the tumor relative to the contralateral flank” value (HT29-tumor; HT29 tumor in right rear flank) was roughly 1.5 fold and the “fluorescence outside the tumor (remainder of the body, kidneys)” value (HT29-tumor; HT29 tumor mouse) was “increased fluorescence signal in the kidneys”.
With “Indocarbocyanine-VIP (1-28)-conjugate (HSDAVFTDNYTRLRKQMAVKKYLNSILN; ends and bridges not checked; also: indocarbocyanine conjugate, position not given here) [conjugate 14]” the “fluorescence image of the cells (pattern)” value (RIN38-VIP1-cells; Cy3-filter set) was “intracellular fluorescence areas with a vesicular pattern in the membrane area of the cell”.
“Indotricarbocyanine-D-VIP (14-24)-conjugate (RKQMAVKKYLN; not fully specified; also: indotricarbocyanine dye conjugate, attachment site not given here) [conjugate 25]” was tested, and the “fluorescence image of the cells (pattern, correlation with white light image)” value (HT29 cells) was “Fluorescence dispersed homogeneously over the cells, good correlation with the white light image”.
With “Indotricarbocyanine-VIP (1-28)-conjugate (HSDAVFTDNYTRLRKQMAVKKYLNSILN; ends and bridges not checked; also: indotricarbocyanine conjugate, position not given here) [conjugate 16]” the “fluorescence image of the cells (pattern, correlation with white light image)” value (HT29 cells) was “largely homogeneous fluorescence dispersed over the cells; also recorded: areas of increased signals were visible, which can be associated with vesicular compartments”.
